Data reported in patent US20090226393A1 (NITTO DENKO CORPORATION, priority 2008, published 2009).

Experiments:
[1] = female, nu/nu, mouse, in vivo, iv, 40 mg/kg
[2] = Biodistribution in different organs (drug accumulation study); settings: 48 hours post administration
Method: Plasma, tumor and samples of the major organ were collected at intervals out to 340 hours. […] Pharmacokinetic parameters were estimated using WinNonlin software using a non-compartment model.
For each drug, groups of 6 mice were anesthetized at various time points and 0.3 ml of blood, obtained by cardiac puncture, was collected into heparinized tubes. Thereafter, mice were sacrificed before recovering from anesthesia and the following tissues were harvested and frozen from each animal: each of the 4 tumors, lung, liver, spleen, both kidneys, skeletal muscle and heart. […] For each drug a total 72 mice were required (6 mice/time point, 12 time points).

[3] = mouse, in vivo
[4] = system: NCI-H460 non-small cell lung cancer xenograft; settings: 550 mg/kg paclitaxel equivalent, IV, q7dx2, compared to Abraxane
From the text: Dosage amounts may be adjusted based on the maximum tolerated dose (MTD) of the pharmaceutical composition.

## CC(=O)O[C@H]1C(=O)[C@@]2(C)[C@H]([C@H](OC(=O)c3ccccc3)[C@]3(O)C[C@H](OC(=O)[C@H](O)[C@@H](NC(=O)c4ccccc4)c4ccccc4)C(C)=C1C3(C)C)[C@]1(OC(C)=O)CO[C@@H]1C[C@@H]2O [PTX, Paclitaxel]
[1]
  T1/2 Terminal: 51 h
[2]
  amount retained in kidney: less than 2 μg/g
  amount retained in liver: less than 2 μg/g
  amount retained in lung: less than 2 μg/g
  amount retained in spleen: less than 2 μg/g
[3]
  detected in the feces: approximately 72%

## poly-(gamma-L-glutamyl glutamine)-paclitaxel [PGGA70K-PTX35]
[4]
  % TGD (tumor growth delay): 136%
B16 melanoma
  tumor volume compared to Abraxane: significantly reduced tumor volume
